One data set concerns astrocytes. In words: Lethality of individual metabolites for astrocytes in serum-free base medium. The class given is cell-based, mouse. The settings on record: millimolar (high) concentrations. The method, then: The cocktail customization was performed in primary cultures of mature astrocytes, between the second and the fourth passage. Those cells were maintained at least 8 days in culture before passaging. We corroborated the expression of Gfap before starting the experiment by immunocytochemistry (FIG. 1G). We tested individual metabolites at different concentrations in a serum-free medium (base media, BM). BM contained equivalent volumes of DMEM-F12 and Neurobasal, plus the supplements N2 and B27 at 1X. Notes about specific molecules added. S-adenosylmethionine (SAM) at millimolar concentrations was lethal for astrocytes, which is in line with the lower physiological concentrations usually found for this metabolite compared to others. Cysteine is high-sensitive to oxidation, which is manifested as white flake precipitation, a high-concentrated stock solution [2500mM] dissolved in ddH2O with pH slightly acid (5.5-6) was prepared to prevent this issue. We corroborated a pH always close to 7.4 in the cells maintained in vitro, before and after treating them with cocktails containing the diluted solution of cysteine.

In data set [1] the test system is primary cultures of mature astrocytes. In words: Customization of C1-MIM concentrations: relative gene expression (Gfap, Cd44) by rtPCR in mature astrocytes. The class given is cell-based, mouse. The procedure: Astrocytes were derived from cortical tissues postnatal or differentiated from dissociated neurospheres after a second or third passage, as described herein. For postnatal astrocytes, cortices were isolated from P4 mice pups to get single cells and were plated as described by Schildge et al.^51Confluent cultures were sorted with Anti-GLAST (ACSA-1) Microbead kit according to manufacturer instructions. For inducing differentiation from NSCs, single cells derived from neurospheres were exposed to astrocyte media. In both cases, cells were plated over pre-treated Poly-L-Lysine plates or Poly-D-Lysine glass-coverslips using Astrocyte Differentiation Medium (DMEM-F12, 10% heat-inactivated FBS, lx B27, and 1X Glutamax).
Cell cultures seeded on adherent conditions were kept on their respective differentiation media until they reach a mature phenotype (defined by the expression of markers specific to each cell type). When cultures reached around 80-90% confluence, the differentiation media was removed, cells were washed twice with PBS and the media was replaced with CI-MIM. The composition of C1-MIM includes up to 6 metabolites (details of the combinations used are specified in figure legends) including Methionine, Threonine, Glycine, Putrescine, Cysteine [5mM], and S-adenosylmethionine [0.05mM], which are dissolved in a base medium (BM) composed by DMEM-F12 plus Neurobasal [1:1], supplemented with 1X B27, 1X N2. […] In all cases, from the same batch of each cell culture, a control culture was also washed with PBS but maintained with their own differentiation media along all the time of the treatment. Cells in this schema were fed every other day. Cells were monitored daily to attest to the change in morphology. Cells were collected on the fifth day or earlier after starting the MIM treatment (indicated in each specific case in the figure legend) for further analyses, as indicated in the figure legends of each experimental approach. Viability of cultures at the time of collection was measured by trypan blue, and all cases above 85% viable cells were processed for downstream analyses.
Total RNA was isolated from cells grown on Petri dish at the indicated time points, using the RNeasy Plus Mini kit QIAGEN, according to the manufacturer's protocol, including a DNA-removal step with DNAseI. Amount and purity of RNA were assessed using a NanoDrop spectrophotometer (Nanodrop Technologies); at least 500 ng of total RNA was used to synthesize cDNA by reverse transcription, using Maxima™ H
Minus cDNA Synthesis Master Mix. 2.5-10 ng of cDNA was used in the following qPCR performed on a CFX384 thermal cycler (Bio-Rad) using the SsoAdvanced™ Universal SYBR® Green Supermix. Results were normalized to at 193 least one reference genes β-Actin, RPL38, GAPDH, Gus, CTCF, and Natl, specified per figure), selected for their highest stability among a pool of common housekeeping genes. Primers were designed by NCBI/Primer-BLAST primers designing tool (Table 1). Statistical analysis of the results was performed using the 2ACt method^s. Results were expressed relative to the expression values of the experimental control.
The cocktail customization was performed in primary cultures of mature astrocytes, between the second and the fourth passage. Those cells were maintained at least 8 days in culture before passaging. […] We tested individual metabolites at different concentrations in a serum-free medium (base media, BM). […]

Entries after “also recorded” stand apart in the source; their conditions may differ.

Experimental findings from patent publication US20230220354A1, “COMPOSITIONS AND METHODS FOR CONTROLLING CELLULAR IDENTITY” (King Abdullah University of Science and Technology, priority 2020, published 2023) are described below.

As to `C[S+](CC[C@H](N)C(=O)[O-])C[C@H]1O[C@@H](n2cnc3c(N)ncnc32)[C@H](O)[C@@H]1O` (stereo partly shown) [S-adenosylmethionine], the “lethality / toxicity for astrocytes” value in the data set on astrocytes is recorded as “lethal; also recorded: toxic”; with astrocytes (listed as SAM) it was “lethal”.
On to “FGF2: growth factor added to improve cell survival in serum-free medium [reference compound]”, for which the Gfap expression entry in data set [1] (20ng/mL) is recorded as “did not inhibit”; in data set [1] (concentrations lower than 20ng/mL) it was “potentiate”.
Consider `N[C@@H](CS)C(=O)O` [cysteine], for which, in data set [1] (individual metabolite, range of concentrations (0.025 to 10mM)), the Gfap expression entry was “potentiates”.
As to `C[C@@H](O)[C@H](N)C(=O)O` [threonine], in data set [1] (separate metabolite at 1mM), the Gfap expression entry was “repressed”.
For the compound `NCCCCN` [putrescine], in data set [1] (separate metabolite at 1mM), the Gfap expression result is “repressed”.
